What was measured:
Format in all cases: biochemical
[1] = target: T1, JAK2 (catalytic domain, His-tag) (Homo sapiens, UniProt O60674); assay: JAK kinase assay (HTRF, phosphorylation of TK substrate-biotin), JAK2; conditions: HTRF assay, ATP at Km (4 μM); read-out: JAK2 kinase inhibitory activity (EC50 indicator)
T1 construct: All four purified enzymes contain only the catalytic domain; His (N); purchased Carna Biosciences, Inc; host or cells: baculovirus expression system
Outline: (§1)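 Per reaction, 5 ng JAK1, 0.1 ng JAK2, 0.3 ng JAK3 or 0.8 ng TYK2 (baculovirus-expressed catalytic domains) acted on 1 μM TK substrate-biotin at Km ATP for 20-30 min, RT. Phosphorylation measured by HTRF.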

[2] = target: T2, JAK3 (catalytic domain, His-tag) (Homo sapiens, UniProt P52333); assay: JAK kinase assay (HTRF, phosphorylation of TK substrate-biotin), JAK3; conditions: HTRF assay, ATP at Km (2 μM); read-out: JAK3 kinase inhibitory activity (EC50 indicator)
T2 construct: All four purified enzymes contain only the catalytic domain; His (N); purchased Carna Biosciences, Inc; host or cells: baculovirus expression system
Outline: as §1

[3] = target: T3, TYK2 (aa 871-1187, catalytic domain, GST-tag) (Homo sapiens, UniProt P29597); assay: JAK kinase assay (HTRF, phosphorylation of TK substrate-biotin), TYK2; conditions: HTRF assay, ATP at Km (13 μM); read-out: TYK2 kinase inhibitory activity (EC50 indicator)
T3 construct: JAK1 (aa 850-1154) and TYK2 (aa 871-1187) are expressed with an N-terminally fused GST-tag; GST (N); purchased Carna Biosciences, Inc; host or cells: baculovirus expression system
T3 sequence (P29597 871-1187): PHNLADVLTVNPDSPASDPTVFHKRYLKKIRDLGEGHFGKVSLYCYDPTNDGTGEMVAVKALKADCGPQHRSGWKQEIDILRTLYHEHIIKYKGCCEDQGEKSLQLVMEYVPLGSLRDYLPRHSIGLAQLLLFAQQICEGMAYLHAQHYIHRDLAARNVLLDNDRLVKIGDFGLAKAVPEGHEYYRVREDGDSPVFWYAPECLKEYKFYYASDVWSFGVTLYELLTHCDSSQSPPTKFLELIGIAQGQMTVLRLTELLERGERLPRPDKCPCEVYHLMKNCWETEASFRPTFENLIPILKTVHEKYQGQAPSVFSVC
Outline: as §1

[4] = target: T4, JAK1 (aa 850-1154, catalytic domain, GST-tag) (Homo sapiens, UniProt P23458); assay: JAK kinase assay (HTRF, phosphorylation of TK substrate-biotin), JAK1; conditions: HTRF assay, ATP at Km (7 μM); read-out: JAK1 kinase inhibitory activity (EC50 indicator)
T4 construct: JAK1 (aa 850-1154) and TYK2 (aa 871-1187) are expressed with an N-terminally fused GST-tag; GST (N); purchased Carna Biosciences, Inc; host or cells: baculovirus expression system
Outline: as §1

T4 sequence (P23458 850-1154): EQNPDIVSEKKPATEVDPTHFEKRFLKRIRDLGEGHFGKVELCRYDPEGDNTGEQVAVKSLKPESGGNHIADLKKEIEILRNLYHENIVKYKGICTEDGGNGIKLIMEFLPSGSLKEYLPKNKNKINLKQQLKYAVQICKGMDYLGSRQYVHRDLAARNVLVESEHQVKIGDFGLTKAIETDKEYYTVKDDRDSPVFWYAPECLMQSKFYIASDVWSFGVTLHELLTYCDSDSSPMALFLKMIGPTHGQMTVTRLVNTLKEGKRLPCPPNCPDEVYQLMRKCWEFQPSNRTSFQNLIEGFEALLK
T2 sequence (P52333 822-1111 limits assumed): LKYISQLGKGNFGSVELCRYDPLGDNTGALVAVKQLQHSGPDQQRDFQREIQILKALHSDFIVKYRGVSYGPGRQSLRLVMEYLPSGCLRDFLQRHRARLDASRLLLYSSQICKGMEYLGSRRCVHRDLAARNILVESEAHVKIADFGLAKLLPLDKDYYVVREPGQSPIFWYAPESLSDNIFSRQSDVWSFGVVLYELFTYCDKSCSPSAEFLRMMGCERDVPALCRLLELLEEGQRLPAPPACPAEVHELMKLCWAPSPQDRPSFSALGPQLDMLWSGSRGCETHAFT
T1 sequence (O60674 849-1124 limits assumed): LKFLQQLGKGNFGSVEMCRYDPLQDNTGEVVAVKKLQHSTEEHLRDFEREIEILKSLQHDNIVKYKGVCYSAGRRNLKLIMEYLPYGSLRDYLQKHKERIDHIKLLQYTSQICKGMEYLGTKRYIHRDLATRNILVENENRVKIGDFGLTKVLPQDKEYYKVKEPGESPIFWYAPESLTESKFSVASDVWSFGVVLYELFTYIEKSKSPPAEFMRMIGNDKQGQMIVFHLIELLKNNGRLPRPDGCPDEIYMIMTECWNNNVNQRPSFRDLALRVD

Row | Structure (SMILES) | EC50 [1] | EC50 [2] | EC50 [3] | EC50 [4]
1 | N#CCCCC(=O)N1[C@@H]2CC[C@@H]1CN(c1ncnc3[nH]ccc13)C2 [Example 352, 5-Oxo-5-[3-(7H-pyrrolo[2,3-d]pyrimidin-4-yl)-3,8-diaza-bicyclo[3.2.1]oct-8-yl]-pentanenitrile] | < 100 nM | 100 to 500 nM | > 500 nM | < 100 nM
2 | NS(=O)(=O)c1ccc(C(=O)N2[C@@H]3CC[C@@H]2CN(c2ncnc4[nH]ccc24)C3)cc1 [Example 353, 4-[3-(7H-Pyrrolo[2,3-d]pyrimidin-4-yl)-3,8-diaza-bicyclo[3.2.1]octane-8-carbonyl]-benzenesulfonamide] | < 100 nM | < 100 nM | < 100 nM | < 100 nM
3 | O=C(c1ccc2[nH]c(=O)ccc2c1)N1[C@@H]2CC[C@@H]1CN(c1ncnc3[nH]ccc13)C2 [Example 355, 6-[3-(7H-Pyrrolo[2,3-d]pyrimidin-4-yl)-3,8-diaza-bicyclo[3.2.1]octane-8-carbonyl]-1H-quinolin-2-one] | < 100 nM | 100 to 500 nM | > 500 nM | < 100 nM
4 | CS(=O)(=O)c1ccc(C(=O)N2[C@@H]3CC[C@@H]2CN(c2ncnc4[nH]ccc24)C3)cc1 [Example 356, (4-Methanesulfonyl-phenyl)-[3-(7H-pyrrolo[2,3-d]pyrimidin-4-yl)-3,8-diaza-bicyclo[3.2.1]oct-8-yl]-methanone] | < 100 nM | 100 to 500 nM | > 500 nM | < 100 nM
5 | NC(=O)c1ccc(C(=O)N2[C@@H]3CC[C@@H]2CN(c2ncnc4[nH]ccc24)C3)cc1 [Example 358, 4-[3-(7H-Pyrrolo[2,3-d]pyrimidin-4-yl)-3,8-diaza-bicyclo[3.2.1]octane-8-carbonyl]-benzamide] | < 100 nM | 100 to 500 nM | 100 to 500 nM | < 100 nM
6 | O=C(c1nsc2cc(Br)ccc12)N1[C@@H]2CC[C@@H]1CN(c1ncnc3[nH]ccc13)C2 [Example 360, (6-Bromo-benzo[d]isothiazol-3-yl)-[3-(7H-pyrrolo[2,3-d]pyrimidin-4-yl)-3,8-diaza-bicyclo[3.2.1]oct-8-yl]-methanone] | 100 to 500 nM | 100 to 500 nM | > 500 nM | 100 to 500 nM
7 | O=C(c1cc2ccc(F)cc2[nH]1)N1CCN(c2ncnc3[nH]ccc23)CC12CC2 [Example 363, (6-Fluoro-1H-indol-2-yl)-[7-(7H-pyrrolo[2,3-d]pyrimidin-4-yl)-4,7-diaza-spiro[2.5]oct-4-yl]-methanone] | < 100 nM | < 100 nM | 100 to 500 nM | < 100 nM
8 | CS(=O)(=O)c1ccc(C(=O)N2CCN(c3ncnc4[nH]ccc34)CC23CC3)cc1 [Example 364, (4-Methanesulfonyl-phenyl)-[7-(7H-pyrrolo[2,3-d]pyrimidin-4-yl)-4,7-diaza-spiro[2.5]oct-4-yl]-methanone] | < 100 nM | 100 to 500 nM | 100 to 500 nM | < 100 nM
9 | CS(=O)(=O)c1cc(C(=O)N2CCN(c3ncnc4[nH]ccc34)CC23CC3)ccc1F [Example 366, (4-Fluoro-3-methanesulfonyl-phenyl)-[7-(7H-pyrrolo[2,3-d]pyrimidin-4-yl)-4,7-diaza-spiro[2.5]oct-4-yl]-methanone] | < 100 nM | 100 to 500 nM | > 500 nM | < 100 nM
10 | NS(=O)(=O)c1ccc(C(=O)N2CCN(c3ncnc4[nH]ccc34)CC23CC3)cc1 [Example 369, 4-[7-(7H-Pyrrolo[2,3-d]pyrimidin-4-yl)-4,7-diaza-spiro[2.5]octane-4-carbonyl]-benzenesulfonamide] | < 100 nM | < 100 nM | < 100 nM | < 100 nM
11 | NS(=O)(=O)c1csc(C(=O)N2CCN(c3ncnc4[nH]ccc34)CC23CC3)c1 [Example 372, 5-[7-(7H-Pyrrolo[2,3-d]pyrimidin-4-yl)-4,7-diaza-spiro[2.5]octane-4-carbonyl]-thiophene-3-sulfonic acid amide] | < 100 nM | < 100 nM | < 100 nM | < 100 nM
12 | Cc1sc(C(=O)N2CCN(c3ncnc4[nH]ccc34)CC23CC3)cc1S(N)(=O)=O [Example 374, 2-Methyl-5-[7-(7H-pyrrolo[2,3-d]pyrimidin-4-yl)-4,7-diaza-spiro[2.5]octane-4-carbonyl]-thiophene-3-sulfonic acid amide] | < 100 nM | < 100 nM | < 100 nM | < 100 nM

Results, then the compound that gave them:

Row | EC50 [1] | EC50 [2] | EC50 [3] | EC50 [4] | Structure (SMILES)
13 | < 100 nM | 100 to 500 nM | > 500 nM | < 100 nM | CC(=O)Nc1ccc(C(=O)N2[C@@H]3CC[C@@H]2CN(c2ncnc4[nH]ccc24)C3)cc1 [Example 354, N-{4-[3-(7H-Pyrrolo[2,3-d]pyrimidin-4-yl)-3,8-diaza-bicyclo[3.2.1]octane-8-carbonyl]-phenyl}-acetamide]
14 | < 100 nM | < 100 nM | 100 to 500 nM | < 100 nM | O=C(c1ccc2cc[nH]c2c1)N1[C@@H]2CC[C@@H]1CN(c1ncnc3[nH]ccc13)C2 [Example 357, (1H-Indol-6-yl)-[3-(7H-pyrrolo[2,3-d]pyrimidin-4-yl)-3,8-diaza-bicyclo[3.2.1]oct-8-yl]-methanone]
15 | < 100 nM | < 100 nM | 100 to 500 nM | < 100 nM | O=C(c1cccc2cc(O)ccc12)N1[C@@H]2CC[C@@H]1CN(c1ncnc3[nH]ccc13)C2 [Example 359, (6-Hydroxy-naphthalen-1-yl)-[3-(7H-pyrrolo[2,3-d]pyrimidin-4-yl)-3,8-diaza-bicyclo[3.2.1]oct-8-yl]-methanone]
16 | < 100 nM | < 100 nM | < 100 nM | < 100 nM | O=C(c1cc2cc(F)ccc2[nH]1)N1CCN(c2ncnc3[nH]ccc23)CC12CC2 [Example 361, (5-Fluoro-1H-indol-2-yl)-[7-(7H-pyrrolo[2,3-d]pyrimidin-4-yl)-4,7-diaza-spiro[2.5]oct-4-yl]-methanone]
17 | < 100 nM | < 100 nM | 100 to 500 nM | < 100 nM | O=C(c1cc2cccc(F)c2[nH]1)N1CCN(c2ncnc3[nH]ccc23)CC12CC2 [Example 362, (7-Fluoro-1H-indol-2-yl)-[7-(7H-pyrrolo[2,3-d]pyrimidin-4-yl)-4,7-diaza-spiro[2.5]oct-4-yl]-methanone]
18 | < 100 nM | < 100 nM | < 100 nM | < 100 nM | CS(=O)(=O)c1ccc2[nH]c(C(=O)N3CCN(c4ncnc5[nH]ccc45)CC34CC4)cc2c1 [Example 365, (5-Methanesulfonyl-1H-indol-2-yl)-[7-(7H-pyrrolo[2,3-d]pyrimidin-4-yl)-4,7-diaza-spiro[2.5]oct-4-yl]-methanone]
19 | < 100 nM | 100 to 500 nM | 100 to 500 nM | < 100 nM | CS(=O)(=O)c1cccc(C(=O)N2CCN(c3ncnc4[nH]ccc34)CC23CC3)c1 [Example 367, (3-Methanesulfonyl-phenyl)-[7-(7H-pyrrolo[2,3-d]pyrimidin-4-yl)-4,7-diaza-spiro[2.5]oct-4-yl]-methanone]
20 | < 100 nM | 100 to 500 nM | 100 to 500 nM | < 100 nM | O=C(c1cc2c(F)cccc2[nH]1)N1CCN(c2ncnc3[nH]ccc23)CC12CC2 [Example 368, (4-Fluoro-1H-indol-2-yl)-[7-(7H-pyrrolo[2,3-d]pyrimidin-4-yl)-4,7-diaza-spiro[2.5]oct-4-yl]-methanone]
21 | < 100 nM | < 100 nM | 100 to 500 nM | < 100 nM | CS(=O)(=O)c1ccc(C(=O)N2CCN(c3ncnc4[nH]ccc34)CC23CC3)cc1F [Example 370, (3-Fluoro-4-methanesulfonyl-phenyl)-[7-(7H-pyrrolo[2,3-d]pyrimidin-4-yl)-4,7-diaza-spiro[2.5]oct-4-yl]-methanone]
22 | < 100 nM | < 100 nM | < 100 nM | < 100 nM | NS(=O)(=O)c1cccc(C(=O)N2CCN(c3ncnc4[nH]ccc34)CC23CC3)c1 [Example 371, 3-[7-(7H-Pyrrolo[2,3-d]pyrimidin-4-yl)-4,7-diaza-spiro[2.5]octane-4-carbonyl]-benzenesulfonamide]
23 | < 100 nM | < 100 nM | < 100 nM | < 100 nM | CNS(=O)(=O)c1csc(C(=O)N2CCN(c3ncnc4[nH]ccc34)CC23CC3)c1 [Example 373, 5-[7-(7H-Pyrrolo[2,3-d]pyrimidin-4-yl)-4,7-diaza-spiro[2.5]octane-4-carbonyl]-thiophene-3-sulfonic acid methylamide]

From US9346809B2 (LEO PHARMA A/S, priority 2009, dated 2016)
